From ChEMBL document CHEMBL1201862, “PubChem BioAssay data set” (2004)
Structures can show the parent of a compound that is named as a salt. The source made the active and inactive calls.

Experiments:
[1] = tested on: BJ; assay: cytotoxicity toward BJ-TERT fibroblasts, dose response, cell-based, RAS-independent, luminescence (AID 1933); type: functional; conditions: Homo sapiens
[2] = Luminescence Cell-Based Dose Response HTS to Identify Inhibitors of 5'UTR Stem-Loop Driven Prion Protein mRNA Translation in H4 Neuroglioblastoma Cells. [Related pubchem assays: 1827 (Project Summary), 1813 (Primary HTS)]; type: functional
[3] = cytotoxicity in HEK-293T cells, dose response, cytotoxicity control for TCR NF-kB inhibitor project, luminescence, T-cell screen hits (AID 489026); type: functional, cell-based;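 further: cells exposed to compound about 14 hours before the viability readout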
[4] = tested on: BJ; assay: cells; type: functional, cell-based; conditions: Homo sapiens
[5] = tested on: BJ; assay: cytotoxicity toward BJ-TERT-LT-ST fibroblasts, dose response, cell-based, RAS-independent, luminescence (AID 1935); type: functional; conditions: Homo sapiens;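 further: BJ fibroblasts immortalized with TERT plus LT and ST oncogenes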
[6] = inhibitors of SNCA 5'UTR-driven reporter translation, confirmation, H4 neuroglioma cells, luminescence (AID 1988); type: functional, cell-based
[7] = inhibitors of firefly luciferase expression or activity, dose response, H4 neuroglioma cells, luminescence (AID 1990); type: functional, cell-based
[8] = cytotoxicity toward DRD oncogenic fibroblasts, dose response, cell-based, non-viral oncogenic, luminescence (AID 1934); type: functional; conditions: Homo sapiens
[9] = molecular target: T1, Ubiquitin-conjugating enzyme E2 N (Homo sapiens, UniProt P61088); type: functional
T1 sequence (P61088 whole entry): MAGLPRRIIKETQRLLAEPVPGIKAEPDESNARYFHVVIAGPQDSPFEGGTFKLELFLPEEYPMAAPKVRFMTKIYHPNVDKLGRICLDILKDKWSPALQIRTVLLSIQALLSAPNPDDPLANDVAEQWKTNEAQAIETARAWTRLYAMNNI

[10] = molecular target: T2, Bcl-2-related protein A1 (Mus musculus, UniProt Q07440); type: functional;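 further: confirmatory dose–response counterscreen on Bfl-1, used to check hits from a UBC13 polyubiquitin inhibitor campaign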
T2 sequence (Q07440 whole entry): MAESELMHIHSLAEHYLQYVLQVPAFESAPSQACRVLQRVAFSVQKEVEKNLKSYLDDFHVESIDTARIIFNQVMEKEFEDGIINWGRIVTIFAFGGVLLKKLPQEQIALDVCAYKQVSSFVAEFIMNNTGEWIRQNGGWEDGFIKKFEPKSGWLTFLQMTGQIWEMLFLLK

[11] = molecular target: T1, Ubiquitin-conjugating enzyme E2 N; type: functional; remark: listed apart in the source
[12] = molecular target: Peroxisome proliferator-activated receptor gamma/Nuclear receptor coactivator 2 (Homo sapiens, UniProt P37231); assay: (§1) TR-FRET dose response biochemical High Throughput Screening assay for agonists of the steroid receptor coactivator 2 (SRC-2) recruitment by the peroxisome proliferator-activated receptor gamma (PPAR gamma): non-selective agonists. [Related pubchem assays: 1297, 1032 ]; type: functional
[13] = molecular target: Peroxisome proliferator-activated receptor gamma/Nuclear receptor coactivator 3 (Homo sapiens, UniProt P37231); assay: as §1, with “3 (SRC-3)” for “2 (SRC-2)”, “1301 (Confirmation screen.), 1048 (Primary screen.)]” for “1297, 1032 ]”; type: functional
[14] = molecular target: Peroxisome proliferator-activated receptor gamma/Nuclear receptor coactivator 1 (Homo sapiens, UniProt P37231); assay: as §1, with “1 (SRC-1)” for “2 (SRC-2)”, “assays (depositor defined):AID1300, AID1808, AID504735, AID631]” for “assays: 1297, 1032 ]”; type: protein assay
[15] = tested on: HEK293; assay: cells; type: functional, cell-based; conditions: Homo sapiens
[16] = molecular target: T3, Nuclear receptor subfamily 0 group B member 1 (Homo sapiens, UniProt P51843); assay: Luminescence-based cell-based high throughput dose response assay for inhibitors of the orphan nuclear receptor subfamily 0, group B, member 1 (DAX1; NR0B1). [Related pubchem assays (depositor defined):AID504766, AID504790]; type: functional
T3 sequence (P51843 whole entry): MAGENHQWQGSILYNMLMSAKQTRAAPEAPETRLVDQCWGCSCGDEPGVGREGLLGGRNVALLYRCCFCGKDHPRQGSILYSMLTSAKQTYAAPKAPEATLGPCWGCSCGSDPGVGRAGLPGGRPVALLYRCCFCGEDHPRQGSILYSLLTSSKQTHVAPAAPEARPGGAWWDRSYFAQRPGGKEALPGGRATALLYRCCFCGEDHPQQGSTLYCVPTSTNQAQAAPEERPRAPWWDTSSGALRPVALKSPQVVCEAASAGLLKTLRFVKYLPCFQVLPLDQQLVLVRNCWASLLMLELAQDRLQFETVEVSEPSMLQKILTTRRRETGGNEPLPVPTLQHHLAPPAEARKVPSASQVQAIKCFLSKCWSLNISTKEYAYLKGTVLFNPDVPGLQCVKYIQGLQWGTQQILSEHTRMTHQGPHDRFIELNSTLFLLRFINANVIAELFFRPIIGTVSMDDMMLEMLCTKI

[17] = tested on: HEK293; assay: inhibitors of LMP1-driven NF-kB reporter, dose response, cell-based, HEK293, luciferase, cherry-pick (AID 588343); type: functional; conditions: Homo sapiens
[18] = tested on: Escherichia coli; assay: microbe, parasite or virus in culture
[19] = tested on: Escherichia coli; assay: microbe, parasite or virus in culture; remark: listed apart in the source
[20] = tested on: HeLa; assay: HeLa cell cytotoxicity, dose response, cytotoxicity control for MITF activator project, CellTiter-Glo luminescence, cherry-pick samples (AID 540259); type: functional, cell-based; conditions: Homo sapiens
[21] = tested on: Vero; assay: cells; type: functional; conditions: Chlorocebus sabaeus
[22] = molecular target: T4, Aminopeptidase N (Plasmodium falciparum FcB1/Columbia, UniProt O96935); assay: P. falciparum M1AAP inhibitors, biochemical, fluorogenic H-Leu-NHMec substrate, 1536-well (AID 1445); design: species or system Plasmodium falciparum 3D7, 3D7
T4 sequence (O96935 whole entry): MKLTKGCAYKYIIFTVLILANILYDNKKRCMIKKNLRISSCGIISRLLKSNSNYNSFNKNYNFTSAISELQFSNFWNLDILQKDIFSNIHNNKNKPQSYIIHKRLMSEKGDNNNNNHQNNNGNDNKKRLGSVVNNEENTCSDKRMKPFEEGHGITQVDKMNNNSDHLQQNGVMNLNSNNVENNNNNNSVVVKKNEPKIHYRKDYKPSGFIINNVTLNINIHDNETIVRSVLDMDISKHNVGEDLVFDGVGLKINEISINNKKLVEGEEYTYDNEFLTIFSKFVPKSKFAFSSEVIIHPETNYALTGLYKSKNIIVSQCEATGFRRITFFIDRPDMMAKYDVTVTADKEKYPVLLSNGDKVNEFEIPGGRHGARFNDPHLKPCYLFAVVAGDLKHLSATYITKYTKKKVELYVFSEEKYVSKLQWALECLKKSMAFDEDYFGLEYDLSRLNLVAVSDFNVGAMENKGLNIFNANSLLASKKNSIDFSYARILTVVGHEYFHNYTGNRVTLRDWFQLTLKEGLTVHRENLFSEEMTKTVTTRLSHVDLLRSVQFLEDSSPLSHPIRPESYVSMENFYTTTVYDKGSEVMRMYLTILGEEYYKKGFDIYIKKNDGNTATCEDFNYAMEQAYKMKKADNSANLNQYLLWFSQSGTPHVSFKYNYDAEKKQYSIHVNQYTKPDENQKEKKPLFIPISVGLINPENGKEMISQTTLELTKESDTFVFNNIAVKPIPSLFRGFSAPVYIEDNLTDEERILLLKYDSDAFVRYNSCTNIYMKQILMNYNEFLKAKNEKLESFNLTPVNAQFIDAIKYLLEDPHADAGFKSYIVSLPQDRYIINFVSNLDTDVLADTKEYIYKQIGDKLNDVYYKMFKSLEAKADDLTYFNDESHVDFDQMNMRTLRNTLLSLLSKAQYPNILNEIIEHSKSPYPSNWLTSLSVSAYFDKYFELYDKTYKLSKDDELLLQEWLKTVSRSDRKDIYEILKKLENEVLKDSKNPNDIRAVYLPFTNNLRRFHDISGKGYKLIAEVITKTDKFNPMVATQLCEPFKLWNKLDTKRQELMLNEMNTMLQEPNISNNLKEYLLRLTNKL

[23] = Luminescence Cell-Based Dose Confirmation HTS to Identify Inhibitors of Platelet Dense Granule Release. [Related pubchem assays: 1663 (Primary HTS), 1678 (Summary of Project)]; type: functional
[24] = molecular target: Luciferin 4-monooxygenase (Photinus pyralis, UniProt P08659); assay: firefly luciferase enzyme inhibitors, dose response, biochemical, luminescence (AID 1891)
[25] = Luminescence Cell-Based Dose Confirmation HTS to Identify Activators of 5'UTR Stem-Loop Driven Alpha-Synuclein mRNA Translation in H4 Neuroglioblastoma Cells. [Related pubchem assays: 1829 (Project Summary), 1814 (Primary HTS)]; type: functional
[26] = Luminescence Cell-Based Dose Response HTS to Identify Activators of Luciferase Translation or Activity in H4 […] Cells. [Related pubchem assays: 1829 (Project Summary), 1814 (Primary HTS)]; type: functional
[27] = cells; type: functional
[28] = THP-1 cell cytotoxicity, dose response, cytotoxicity control for non-replicating M. tuberculosis project (AID 489025); type: functional
[29] = tested on: H4; assay: Luminescence Cell-Based Dose Response HTS to Identify Activators of 5'UTR Stem-Loop Driven Prion Protein mRNA Translation in H4 Neuroglioblastoma Cells. [Related pubchem assays: 1829 (Project Summary), 1814 (Primary HTS)]; type: functional; conditions: Homo sapiens

Peroxisome proliferator-activated receptor gamma/Nuclear receptor coactivator 2, sequence (P37231 whole entry): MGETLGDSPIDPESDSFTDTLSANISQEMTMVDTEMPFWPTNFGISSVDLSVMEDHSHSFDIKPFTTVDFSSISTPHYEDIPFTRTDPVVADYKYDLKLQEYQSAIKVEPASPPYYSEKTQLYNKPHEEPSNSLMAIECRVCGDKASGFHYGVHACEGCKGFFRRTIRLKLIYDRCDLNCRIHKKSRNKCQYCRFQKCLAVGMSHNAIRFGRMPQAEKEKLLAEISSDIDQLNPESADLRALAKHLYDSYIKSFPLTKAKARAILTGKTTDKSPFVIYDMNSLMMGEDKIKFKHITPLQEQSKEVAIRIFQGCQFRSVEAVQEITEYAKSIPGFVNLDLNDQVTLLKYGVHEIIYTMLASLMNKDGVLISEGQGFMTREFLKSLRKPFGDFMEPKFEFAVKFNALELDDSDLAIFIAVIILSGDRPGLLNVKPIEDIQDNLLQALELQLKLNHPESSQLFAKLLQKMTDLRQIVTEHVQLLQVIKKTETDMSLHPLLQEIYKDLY
Peroxisome proliferator-activated receptor gamma/Nuclear receptor coactivator 2, sequence (Q15596 whole entry, further chain): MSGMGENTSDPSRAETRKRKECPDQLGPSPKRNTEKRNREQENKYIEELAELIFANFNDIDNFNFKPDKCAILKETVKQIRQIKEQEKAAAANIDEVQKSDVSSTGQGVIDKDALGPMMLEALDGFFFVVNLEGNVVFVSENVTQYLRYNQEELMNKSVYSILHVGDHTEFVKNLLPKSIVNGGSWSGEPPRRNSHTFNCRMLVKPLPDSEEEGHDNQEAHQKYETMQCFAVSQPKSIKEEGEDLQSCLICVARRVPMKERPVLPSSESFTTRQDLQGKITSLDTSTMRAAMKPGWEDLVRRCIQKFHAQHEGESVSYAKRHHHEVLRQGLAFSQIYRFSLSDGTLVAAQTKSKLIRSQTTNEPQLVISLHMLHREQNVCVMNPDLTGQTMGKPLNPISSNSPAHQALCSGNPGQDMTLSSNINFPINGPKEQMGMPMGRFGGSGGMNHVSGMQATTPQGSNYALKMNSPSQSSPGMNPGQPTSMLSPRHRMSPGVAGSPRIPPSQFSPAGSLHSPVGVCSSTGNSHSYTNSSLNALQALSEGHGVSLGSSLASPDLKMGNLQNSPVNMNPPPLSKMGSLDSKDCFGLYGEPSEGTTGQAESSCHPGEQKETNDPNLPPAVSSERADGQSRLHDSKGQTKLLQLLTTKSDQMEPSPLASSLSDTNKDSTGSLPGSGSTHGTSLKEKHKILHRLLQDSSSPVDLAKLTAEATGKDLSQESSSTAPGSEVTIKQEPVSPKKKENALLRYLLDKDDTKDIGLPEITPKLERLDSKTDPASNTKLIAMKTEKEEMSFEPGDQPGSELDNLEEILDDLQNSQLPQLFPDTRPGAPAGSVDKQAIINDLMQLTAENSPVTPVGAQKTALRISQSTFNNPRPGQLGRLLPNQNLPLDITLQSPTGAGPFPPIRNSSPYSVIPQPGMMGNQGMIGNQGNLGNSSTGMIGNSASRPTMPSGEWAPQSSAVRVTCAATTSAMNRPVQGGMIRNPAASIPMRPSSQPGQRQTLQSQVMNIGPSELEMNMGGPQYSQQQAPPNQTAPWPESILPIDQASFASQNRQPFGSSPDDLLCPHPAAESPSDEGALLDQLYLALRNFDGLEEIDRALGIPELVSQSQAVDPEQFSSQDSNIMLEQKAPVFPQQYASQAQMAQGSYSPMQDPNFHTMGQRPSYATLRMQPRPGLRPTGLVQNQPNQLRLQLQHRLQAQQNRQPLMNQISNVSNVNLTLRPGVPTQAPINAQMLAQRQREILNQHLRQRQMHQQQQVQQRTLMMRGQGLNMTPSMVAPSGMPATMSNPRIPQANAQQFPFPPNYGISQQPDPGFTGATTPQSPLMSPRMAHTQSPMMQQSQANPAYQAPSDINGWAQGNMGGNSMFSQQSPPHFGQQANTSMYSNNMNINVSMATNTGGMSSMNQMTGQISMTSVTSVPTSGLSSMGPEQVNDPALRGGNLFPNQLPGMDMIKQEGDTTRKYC
Peroxisome proliferator-activated receptor gamma/Nuclear receptor coactivator 3, sequence (P37231 whole entry): as the sequence (P37231 whole entry) above
Peroxisome proliferator-activated receptor gamma/Nuclear receptor coactivator 3, sequence (Q9Y6Q9 whole entry, further chain): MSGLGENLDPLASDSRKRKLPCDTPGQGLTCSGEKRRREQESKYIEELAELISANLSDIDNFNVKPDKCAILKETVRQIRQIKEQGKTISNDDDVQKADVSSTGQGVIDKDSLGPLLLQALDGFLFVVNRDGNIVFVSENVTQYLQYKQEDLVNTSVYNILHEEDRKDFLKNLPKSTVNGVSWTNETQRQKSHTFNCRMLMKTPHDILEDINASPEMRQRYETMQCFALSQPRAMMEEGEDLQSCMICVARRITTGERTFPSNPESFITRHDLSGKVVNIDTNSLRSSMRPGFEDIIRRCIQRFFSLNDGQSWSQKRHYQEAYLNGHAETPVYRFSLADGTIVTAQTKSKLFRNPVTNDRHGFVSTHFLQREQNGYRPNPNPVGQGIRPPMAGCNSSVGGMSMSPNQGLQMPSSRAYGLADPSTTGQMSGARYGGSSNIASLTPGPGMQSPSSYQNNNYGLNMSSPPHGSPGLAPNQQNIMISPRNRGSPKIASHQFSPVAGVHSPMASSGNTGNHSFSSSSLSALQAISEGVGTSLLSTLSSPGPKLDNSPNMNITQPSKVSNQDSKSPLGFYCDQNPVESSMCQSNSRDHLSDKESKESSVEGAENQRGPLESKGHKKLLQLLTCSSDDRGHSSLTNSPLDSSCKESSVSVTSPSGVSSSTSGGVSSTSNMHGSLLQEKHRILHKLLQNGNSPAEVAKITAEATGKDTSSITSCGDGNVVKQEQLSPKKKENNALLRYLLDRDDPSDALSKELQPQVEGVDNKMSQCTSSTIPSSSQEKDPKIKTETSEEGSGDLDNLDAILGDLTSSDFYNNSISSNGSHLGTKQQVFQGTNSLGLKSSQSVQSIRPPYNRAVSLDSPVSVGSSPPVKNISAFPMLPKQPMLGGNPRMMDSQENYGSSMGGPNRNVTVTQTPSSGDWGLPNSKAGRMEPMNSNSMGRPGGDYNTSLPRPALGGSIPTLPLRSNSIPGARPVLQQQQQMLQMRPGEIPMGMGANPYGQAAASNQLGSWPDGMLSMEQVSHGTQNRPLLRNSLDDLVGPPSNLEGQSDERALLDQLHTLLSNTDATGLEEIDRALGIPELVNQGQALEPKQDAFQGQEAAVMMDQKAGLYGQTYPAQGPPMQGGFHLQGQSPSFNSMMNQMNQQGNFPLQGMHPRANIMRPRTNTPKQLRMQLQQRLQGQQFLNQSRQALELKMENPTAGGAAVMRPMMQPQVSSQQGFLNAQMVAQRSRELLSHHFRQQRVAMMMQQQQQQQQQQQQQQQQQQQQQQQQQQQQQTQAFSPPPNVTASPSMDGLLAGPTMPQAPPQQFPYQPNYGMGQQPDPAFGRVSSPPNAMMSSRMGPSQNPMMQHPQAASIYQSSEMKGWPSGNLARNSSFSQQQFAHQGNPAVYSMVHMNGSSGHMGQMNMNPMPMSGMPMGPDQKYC
Luciferin 4-monooxygenase, sequence (P08659 whole entry): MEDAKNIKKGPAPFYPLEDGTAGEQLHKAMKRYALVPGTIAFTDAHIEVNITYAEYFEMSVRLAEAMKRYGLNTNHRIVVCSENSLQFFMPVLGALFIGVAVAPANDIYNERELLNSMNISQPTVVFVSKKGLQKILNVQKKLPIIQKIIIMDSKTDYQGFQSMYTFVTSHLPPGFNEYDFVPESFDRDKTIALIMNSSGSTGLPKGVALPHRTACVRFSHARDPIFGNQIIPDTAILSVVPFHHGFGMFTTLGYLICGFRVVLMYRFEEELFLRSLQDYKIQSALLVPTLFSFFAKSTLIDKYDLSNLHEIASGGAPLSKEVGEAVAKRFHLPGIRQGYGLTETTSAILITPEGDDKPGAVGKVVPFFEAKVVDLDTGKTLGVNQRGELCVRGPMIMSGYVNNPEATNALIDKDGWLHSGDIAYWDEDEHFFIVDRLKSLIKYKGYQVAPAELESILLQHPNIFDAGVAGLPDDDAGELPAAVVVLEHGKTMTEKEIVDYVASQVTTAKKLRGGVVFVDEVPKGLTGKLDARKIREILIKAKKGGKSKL

With `Cc1cccc(N2CCN(C(=O)c3c(-c4ccccc4)noc3C)CC2)c1C` the EC50 [1] was 4.1 µM (active), the EC50 [2] was 17.1 µM (active) and the IC50 [3] was > 80 µM (inactive). The EC50 [4] was 89.6 µM (active), the EC50 [5] was 2.67 µM (active) and the EC50 [6] was 6.76 µM (active). For the same molecule, the EC50 [7] was 10.9 µM (active) and the EC50 [8] was 2.58 µM (active).

With `CCOC(=O)C1=C(COC(=O)c2ncc(Cl)c(Cl)c2Cl)NC(=O)NC1C` (stereo not drawn) the IC50 [9] was 9.23 µM (active), the IC50 [10] was > 20 µM (inactive) and the IC50 [11] was 7.88 µM (active).

With `Cn1cc(Cl)c(-c2nnc(S)n2-c2ccccc2)n1` the EC50 [12] was > 79.4 µM (not active), the EC50 [13] was > 79.4 µM (not active) and the EC50 [14] was > 79.4 µM (inactive).

In the case of `CCn1c(=O)cc(SCC(=O)Nc2ccc3c(c2)OCCO3)c2ccccc21`, the EC50 [12] is reported as 7.21 µM (active), the EC50 [13] is reported as > 79.4 µM (not active) and the EC50 [14] is reported as 7.45 µM (active).

In the case of `CN(C)/C=C(/C(=O)c1ccc(Cl)c(Cl)c1)c1nnnn1-c1ccccc1`, the IC50 [15] is reported as > 67.5 µM (inactive) and the IC50 [16] is reported as > 67.5 µM (inactive).

For `CCOC(=O)c1nc(NCc2ccccc2F)c2ccccc2n1`, the AC50 [17] was > 350 µM (inactive), the AC50 [18] was > 150 µM (inactive) and the AC50 [19] was 52.7 µM (active).

In the case of `CN(C)c1ccnc2sc3c(SCc4ccc(Cl)cc4)ncnc3c12`, the AC50 [20] is reported as 63.3 µM (active).

In the case of `CC(=O)c1ccc(NC(=O)CSc2nnc(C3CC3)n2C2CC2)cc1`, the AC50 [19] is reported as 109 µM (active).

In the case of `Cc1cc(CNC(=O)c2cc(COc3ccc(F)c(F)c3)on2)nn1C`, the AC50 [20] is reported as 66.8 µM (active).

With `COc1cc2nc(N3CCN(C(=O)c4ccco4)CC3)nc(N)c2cc1OC` [PRAZOSIN HYDROCHLORIDE] the CC50 [21] was 16.9 µM (active).

In the case of `CCN(CC)CCOC(=O)c1ccc(NC(=O)c2cn(-c3ccccc3)nc2-c2cccs2)cc1`, the IC50 [9] is reported as > 20 µM (inactive), the IC50 [10] is reported as > 20 µM (inactive) and the IC50 [11] is reported as 8.78 µM (active).

With `Cn1c(=O)c2c(ncn2Cc2ccc(Cl)c(Cl)c2)n(C)c1=O` the IC50 [9] was 7.05 µM (active), the IC50 [10] was > 20 µM (inactive) and the IC50 [11] was 16.3 µM (active).

In the case of `CCCc1cc(C(=O)Nc2cc(C)ccc2O)no1`, the IC50 [3] is reported as > 80 µM (inactive).

In the case of `COc1ccc(NC(=O)C2C3C=CC(C3)C2C(=O)NCc2ccco2)c(OC)c1` (stereo not drawn), the IC50 [22] is reported as 89.2 µM (active).

In the case of `CCSc1nnc(NC(=O)C2CC2c2ccccc2)s1` (stereo not drawn), the IC50 [15] is reported as > 67.5 µM (inactive), the EC50 [23] is reported as > 112 µM (not active) and the EC50 [24] is reported as > 112 µM (not active). The IC50 [16] was > 67.5 µM (inactive).

For `COc1cc2c(cc1OC)CN(C(=O)c1ccc([N+](=O)[O-])o1)CC2`, the EC50 [25] was 11.6 µM (active), the EC50 [26] was 37.5 µM (active) and the IC50 [27] was 0.14 µM (active). The CC50 [28] was > 40 µM (active) and the EC50 [29] was > 120 µM (not active).

In the case of `O=C(N/N=C/c1cccn1-c1ccc([N+](=O)[O-])cc1)c1cccnc1`, the CC50 [21] is reported as > 25 µM (active).

With `Cc1cc(C)c2c(N)c(C(=O)Nc3ccc(C)c(C)c3)sc2n1` the IC50 [15] was > 67.6 µM (inactive) and the IC50 [16] was > 67.6 µM (inactive).

For `c1ccc(CCn2nnc3ccccc32)cc1`, the AC50 [20] was 207 µM (active).

For `C=C(C)c1cccc(C(C)(C)NC(=O)Nc2ccc(C)cn2)c1`, the IC50 [22] was 41.3 µM (active).

In the case of `CCOc1cccc(C(=O)NC2=NCCS2)c1`, the IC50 [15] is reported as > 67.5 µM (inactive) and the IC50 [16] is reported as > 67.5 µM (inactive).

In the case of `C=CC[C@@H](CC/C=C/C=C/CC/C=C\[C@@H]1CSC([C@@H]2C[C@@H]2C)=N1)OC`, the IC50 [3] is reported as > 80 µM (inactive).

In the case of `COc1ccc2c(c1)CC/C2=N\OC(=O)c1ccccc1C`, the AC50 [20] is reported as 51.1 µM (active).

In the case of `NC(=O)N/N=C\c1cc(Br)ccc1O`, the IC50 [22] is reported as 50.6 µM (active).
